According to the supplement of paper PMC10307832:

Tests used:
Test in all cases: relative viability (nuclei count vs DMSO), 5 days (fraction); higher = more cells survive
[1] = compound: CC[C@@H]1C(=O)N(C)c2cnc(Nc3ccc(C(=O)NC4CCN(C)CC4)cc3OC)nc2N1C1CCCC1 [BI-2536] + C[C@]1(O)C[C@@H](c2nc(-c3ccc4ccc(-c5ccccc5)nc4c3)c3c(N)nccn32)C1 [Linsitinib] (partner 1 µM)
Procedure, shortened: (§1)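 The day after seeding in 1536-well plates, lung cancer cell lines were treated by pin tool with a single drug, or with a fixed anchor-drug dose together with five library-drug doses (not always all listed) in √10 steps. After 5 days, a combined fix-and-stain solution (final 0.05% Triton X-100, 1% formaldehyde, 1 ug/ml Hoechst) was added. Nuclei counted on 4× images gave relative viability as treated counts over vehicle counts, reported as the median of duplicate plates.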

[2] = compound: CC[C@@H]1C(=O)N(C)c2cnc(Nc3ccc(C(=O)NC4CCN(C)CC4)cc3OC)nc2N1C1CCCC1 [BI-2536] + Cc1nc(Nc2ncc(C(=O)Nc3c(C)cccc3Cl)s2)cc(N2CCN(CCO)CC2)n1 [Dasatinib] (partner 0.075 µM)
Procedure, shortened: as §1

[3] = compound: CC1CC(=O)N(C2=CN=C(N=C2N1C3CCCC3)NC4=C(C=C(C=C4)C(=O)NC5CCN(CC5)C)OC)C [NPK76-II-72-1] + O=C(CCCCCCC(=O)Nc1ccccc1)NO [Vorinostat] (partner 1 µM)
Procedure, shortened: as §1

[4] = compound: CC1CC(=O)N(C2=CN=C(N=C2N1C3CCCC3)NC4=C(C=C(C=C4)C(=O)NC5CCN(CC5)C)OC)C [NPK76-II-72-1] + Cc1nc(NC(=O)N2CCC[C@H]2C(N)=O)sc1-c1ccnc(C(C)(C)C(F)(F)F)c1 [Alpelisib] (partner 2 µM)
Procedure, shortened: as §1

UMC-11
relative viability ([1]; first compound 0.01 µM): 1.02 | relative viability ([1]; first compound 0.03162 µM): 0.967 | relative viability ([1]; first compound 0.1 µM): 0.841 | relative viability ([1]; first compound 0.3162 µM): 0.207 | relative viability ([1]; first compound 1 µM): 0.172 | relative viability ([2]; first compound 0.01 µM): 0.432 | relative viability ([2]; first compound 0.03162 µM): 0.243 | relative viability ([2]; first compound 0.1 µM): 0.141 | relative viability ([2]; first compound 0.3162 µM): 0.183 | relative viability ([2]; first compound 1 µM): 0.158 | relative viability ([3]; first compound 0.01 µM): 0.358 | relative viability ([3]; first compound 0.03162 µM): 0.365 | relative viability ([3]; first compound 0.1 µM): 0.334 | relative viability ([3]; first compound 0.3162 µM): 0.392 | relative viability ([3]; first compound 1 µM): 0.309 | relative viability ([4]; first compound 0.01 µM): 0.967 | relative viability ([4]; first compound 0.03162 µM): 0.994 | relative viability ([4]; first compound 0.1 µM): 1.02 | relative viability ([4]; first compound 0.3162 µM): 0.835 | relative viability ([4]; first compound 1 µM): 0.978
